What follows are compounds tested on Mo7e cells which endogenously express c-kit (assay: Mo7e assay: inhibition of SCF dependent proliferation (MTT)). Conditions: Table 1; SCF stimulated Mo7e cells, 48 hours, MTT.
Assay type: cell-based
Experimental: The compounds described herein are tested for inhibition of SCF dependent proliferation using Mo7e cells which endogenously express c-kit in a 96 well format. Two-fold serially diluted test compounds (Cmax=10 μM) are evaluated for their antiproliferative activity of Mo7e cells stimulated with human recombinant SCF. After 48 hours of incubation at 37° C., cell viability is measured by using a MTT colorimetric assay from Promega. IC50 values for compounds of the invention are quoted in table 1, supra.

SMILES	IC50
CC(=O)c1ccccc1-c1nc(Nc2ccc(C)c(-c3cc4cnc(C)cc4n(C)c3=O)c2)no1 [Compound A94, 3-(5-{[5-(2-acetylphenyl)-1,2,4-oxadiazol-3-yl]amino}-2-methylphenyl)-1,7-dimethyl-1,2-dihydro-1,6-naphthyridin-2-one]	258 nM
Cc1cc2c(cn1)cc(-c1cc(Nc3noc(C4CCCOC4)n3)ccc1C)c(=O)n2C (stereo not shown) [Compound A59, 1,7-dimethyl-3-(2-methyl-5-{[5-(oxan-3-yl)-1,2,4-oxadiazol-3-yl]amino}phenyl)-1,2-dihydro-1,6-naphthyridin-2-one]	233 nM
Cc1cc2c(cn1)cc(-c1cc(Nc3nnc(C4CCCC4)[nH]3)ccc1C)c(=O)n2C [Compound C1, 3-(5-(5-cyclopentyl-4H-1,2,4-triazol-3-ylamino)-2-methylphenyl)-1,7-dimethyl-1,6-naphthyridin-2(1H)-one]	120 nM
Cc1cc2c(cn1)cc(-c1cc(Nc3cc(-c4ccc(OC(F)(F)F)cc4)on3)ccc1C)c(=O)n2C [Compound D2]	428 nM
Cc1cc2c(cn1)cc(-c1cc(Nc3nnc(-c4ccc(F)cc4)o3)ccc1C)c(=O)n2C [Compound B6, 3-(5-{[5-(4-fluorophenyl)-1,3,4-oxadiazol-2-yl]amino}-2-methylphenyl)-1,7-dimethyl-1,2-dihydro-1,6-naphthyridin-2-one]	121 nM
Cc1cc2c(cn1)cc(-c1cc(Nc3noc(-c4cccc(C)n4)n3)ccc1C)c(=O)n2C [Compound A47, 1,7-dimethyl-3-(2-methyl-5-{[5-(6-methylpyridin-2-yl)-1,2,4-oxadiazol-3-yl]amino}phenyl)-1,2-dihydro-1,6-naphthyridin-2-one]	311 nM
Cc1cc2c(cn1)cc(-c1cc(Nc3cc(C4CC4)on3)ccc1C)c(=O)n2C [Compound D4, 3-(5-(5-cyclopropylisoxazol-3-ylamino)-2-methylphenyl)-1,7-dimethyl-1,6-naphthyridin-2(1H)-one]	56 nM
Cc1cc2c(cn1)cc(-c1cc(Nc3noc(C4CCO4)n3)ccc1C)c(=O)n2C (stereo not shown) [Compound A66, 1,7-dimethyl-3-(2-methyl-5-{[5-(oxetan-2-yl)-1,2,4-oxadiazol-3-yl]amino}phenyl)-1,2-dihydro-1,6-naphthyridin-2-one]	143 nM
CC(=NO)c1cc(Nc2ccc(C)c(-c3cc4cnc(C)cc4n(C)c3=O)c2)no1 [Compound D13]	476 nM
Cc1cc2c(cn1)cc(-c1cc(Nc3noc(C(C)(C)C)n3)ccc1C)c(=O)n2C [Compound A30, 3-{5-[(5-tert-butyl-1,2,4-oxadiazol-3-yl)amino]-2-methylphenyl}-1,7-dimethyl-1,2-dihydro-1,6-naphthyridin-2-one]	245 nM
Cc1cc2c(cn1)cc(-c1cc(Nc3noc(-c4ccc(F)c(F)c4)n3)ccc1C)c(=O)n2C [Compound A62, 3-(5-{[5-(3,4-difluorophenyl)-1,2,4-oxadiazol-3-yl]amino}-2-methylphenyl)-1,7-dimethyl-1,2-dihydro-1,6-naphthyridin-2-one]	126 nM
Cc1cc2c(cn1)cc(-c1cc(Nc3noc(C(C)(C)CO)n3)ccc1C)c(=O)n2C [Compound A35, 3-(5-(5-(1-hydroxy-2-methylpropan-2-yl)-1,2,4-oxadiazol-3-ylamino)-2-methylphenyl)-1,7-dimethyl-1,6-naphthyridin-2(1H)-one]	181 nM
Cc1cc2c(cn1)cc(-c1cc(Nc3nnc(CC(C)C)o3)ccc1C)c(=O)n2C [Compound B5, 3-(5-(5-isobutyl-1,3,4-oxadiazol-2-ylamino)-2-methylphenyl)-1,7-dimethyl-1,6-naphthyridin-2(1H)-one]	108 nM
Cc1cc2c(cn1)cc(-c1cc(Nc3noc(-c4cccc(Cl)c4)n3)ccc1C)c(=O)n2C [Compound A20, 3-(5-{[5-(3-chlorophenyl)-1,2,4-oxadiazol-3-yl]amino}-2-methylphenyl)-1,7-dimethyl-1,2-dihydro-1,6-naphthyridin-2-one]	330 nM
Cc1cc2c(cn1)cc(-c1cc(Nc3noc(-c4ccc(C(C)(F)F)cc4)n3)ccc1C)c(=O)n2C [Compound A89, 3-[5-({5-[4-(1,1-difluoroethyl)phenyl]-1,2,4-oxadiazol-3-yl}amino)-2-methylphenyl]-1,7-dimethyl-1,2-dihydro-1,6-naphthyridin-2-one]	217 nM
CCCc1nc(Nc2ccc(C)c(-c3cc4cnc(C)cc4n(C)c3=O)c2)no1 [Compound A28, 1,7-dimethyl-3-{2-methyl-5-[(5-propyl-1,2,4-oxadiazol-3-yl)amino]phenyl}-1,2-dihydro-1,6-naphthyridin-2-one]	50 nM
Cc1cc2c(cn1)cc(-c1cc(Nc3noc(-c4c(F)cccc4F)n3)ccc1C)c(=O)n2C [Compound A60, 3-(5-{[5-(2,6-difluorophenyl)-1,2,4-oxadiazol-3-yl]amino}-2-methylphenyl)-1,7-dimethyl-1,2-dihydro-1,6-naphthyridin-2-one]	82 nM

SMILES	IC50
Cc1cc2c(cn1)cc(-c1cc(Nc3noc(-c4ccc(Cl)nc4)n3)ccc1C)c(=O)n2C [Compound A1, 3-(5-{[5-(6-chloropyridin-3-yl)-1,2,4-oxadiazol-3-yl]amino}-2-methylphenyl)-1,7-dimethyl-1,2-dihydro-1,6-naphthyridin-2-one]	100 nM
Cc1cc2c(cn1)cc(-c1cc(Nc3noc(-c4cccc(C#N)c4)n3)ccc1C)c(=O)n2C [Compound A40, 3-(3-{[3-(1,7-dimethyl-2-oxo-1,2-dihydro-1,6-naphthyridin-3-yl)-4-methylphenyl]amino}-1,2,4-oxadiazol-5-yl)benzonitrile]	299 nM
Cc1ccc(Nc2noc(-c3ccccc3)n2)cc1-c1cc2c[n+]([O-])c(C)cc2n(C)c1=O [Compound A86, 1,7-dimethyl-3-{2-methyl-5-[(5-phenyl-1,2,4-oxadiazol-3-yl)amino]phenyl}-6-oxido-2-oxo-1,2-dihydro-1,6-naphthyridin-6-ium]	216 nM
Cc1cc2c(cn1)cc(-c1cc(Nc3noc(-c4ccc(Cl)cc4)n3)ccc1C)c(=O)n2C [Compound A12, 3-(5-{[5-(4-chlorophenyl)-1,2,4-oxadiazol-3-yl]amino}-2-methylphenyl)-1,7-dimethyl-1,2-dihydro-1,6-naphthyridin-2-one]	13 nM
Cc1cc2c(cn1)cc(-c1cc(Nc3noc(C4(C(F)(F)F)CC4)n3)ccc1C)c(=O)n2C [Compound A58, 1,7-dimethyl-3-(2-methyl-5-(5-(1-(trifluoromethyl)cyclopropyl)-1,2,4-oxadiazol-3-ylamino)phenyl)-1,6-naphthyridin-2(1H)-one]	399 nM
Cc1cc2c(cn1)cc(-c1cc(Nc3nsc(-c4ccccc4)n3)ccc1C)c(=O)n2C [Compound G1, 1,7-dimethyl-3-(2-methyl-5-(5-phenyl-1,2,4-thiadiazol-3-ylamino)phenyl)-1,6-naphthyridin-2(1H)-one]	733 nM
Cc1cc2c(cn1)cc(-c1cc(Nc3noc(-c4ncccc4C)n3)ccc1C)c(=O)n2C [Compound A79, 1,7-dimethyl-3-(2-methyl-5-{[5-(3-methylpyridin-2-yl)-1,2,4-oxadiazol-3-yl]amino}phenyl)-1,2-dihydro-1,6-naphthyridin-2-one]	94 nM
Cc1cc2c(cn1)cc(-c1cc(Nc3nnc(-c4ccc(Cl)cc4)o3)ccc1C)c(=O)n2C [Compound B3, 3-(5-{[5-(4-chlorophenyl)-1,3,4-oxadiazol-2-yl]amino}-2-methylphenyl)-1,7-dimethyl-1,2-dihydro-1,6-naphthyridin-2-one]	88 nM
Cc1cc2c(cn1)cc(-c1cc(Nc3nnc(-c4ccc(Cl)cc4)[nH]3)ccc1C)c(=O)n2C [Compound C2, 3-(5-{[5-(4-chlorophenyl)-4H-1,2,4-triazol-3-yl]amino}-2-methylphenyl)-1,7-dimethyl-1,2-dihydro-1,6-naphthyridin-2-one]	256 nM
Cc1cc2c(cn1)cc(-c1cc(Nc3cc(-c4ccccc4)on3)ccc1C)c(=O)n2C [Compound D1, 1,7-dimethyl-3-(2-methyl-5-(5-phenylisoxazol-3-ylamino)phenyl)-1,6-naphthyridin-2(1H)-one]	68 nM
Cc1cc2c(cn1)cc(-c1cc(Nc3noc([C@@H]4CCCO4)n3)ccc1C)c(=O)n2C [Compound A77, (S)-1,7-dimethyl-3-(2-methyl-5-(5-(tetrahydrofuran-2-yl)-1,2,4-oxadiazol-3-ylamino)phenyl)-1,6-naphthyridin-2(1H)-one]	27 nM
Cc1cc2c(cn1)cc(-c1cc(Nc3noc(C(O)C(C)C)n3)ccc1C)c(=O)n2C (stereo in doubt) [Compound A92, (R)-3-(5-(5-(1-hydroxy-2-methylpropyl)-1,2,4-oxadiazol-3-ylamino)-2-methylphenyl)-1,7-dimethyl-1,6-naphthyridin-2(1H)-one]	104 nM
CCc1nc(Nc2ccc(C)c(-c3cc4cnc(C)cc4n(C)c3=O)c2)no1 [Compound A5, 3-(5-(5-ethyl-1,2,4-oxadiazol-3-ylamino)-2-methylphenyl)-1,7-dimethyl-1,6-naphthyridin-2(1H)-one]	49 nM
CCc1cc2c(cn1)cc(-c1cc(Nc3noc(-c4ccccn4)n3)ccc1C)c(=O)n2C [Compound A105, 7-ethyl-1-methyl-3-(2-methyl-5-(5-(pyridin-2-yl)-1,2,4-oxadiazol-3-ylamino)phenyl)-1,6-naphthyridin-2(1H)-one]	285 nM
Cc1cc2c(cn1)cc(-c1cc(Nc3noc(-c4cccn4C)n3)ccc1C)c(=O)n2C [Compound A21, 1,7-dimethyl-3-(2-methyl-5-{[5-(1-methyl-1H-pyrrol-2-yl)-1,2,4-oxadiazol-3-yl]amino}phenyl)-1,2-dihydro-1,6-naphthyridin-2-one]	129 nM
Cc1cc2c(cn1)cc(-c1cc(Nc3cc(C(C)C)on3)ccc1C)c(=O)n2C [Compound D14]	144 nM
Cc1cc2c(cn1)cc(-c1cc(Nc3noc(-c4ccccc4)n3)ccc1C)c(=O)n2C [Compound A7, 1,7-dimethyl-3-(2-methyl-5-(5-phenyl-1,2,4-oxadiazol-3-ylamino)phenyl)-1,6-naphthyridin-2(1H)-one]	76 nM
